Settings: Liquid; for speed of sound: Pulse-echo method; for mass density: Vibrating tube method

CCCCCCCCCC(=O)OCC [ethyl decanoate]
Settings	mass density, 293.15 K [kg/m3]	mass density, 303.15 K [kg/m3]	mass density, 313.15 K [kg/m3]	mass density, 323.15 K [kg/m3]	mass density, 333.15 K [kg/m3]	mass density, 343.15 K [kg/m3]	speed of sound, 283.15 K [m/s]	speed of sound, 303.15 K [m/s]	speed of sound, 323.15 K [m/s]	speed of sound, 343.15 K [m/s]
101.3 kPa	863.82	855.53	847.99	839.75	831.19	822.9	1352.7	1275	1203.1	1133.3
10000 kPa	870.79	863.17	855.19	847.49	839.38	831.45	1398.5	1325.7	1258.2	1192.8
20000 kPa	877.08	869.73	862	854.78	846.93	839.59	1442.3	1373.2	1309.5	1247
30000 kPa	882.99	875.81	868.5	861.46	853.95	846.94	1483.7	1416.8	1355.9	1297.2
40000 kPa	888.58	881.53	874.4	867.52	860.39	853.75	1522.5	1458.3	1399.1	1343
50000 kPa	893.79	887	880	873.23	866.43	860.03	1558.3	1498	1439.4	1385.7
60000 kPa	898.83	892.12	885.4	879.07	872.17	865.88	1593.9	1535.5	1478.4	1425.7
70000 kPa	903.51	897.09	890.5	884.28	877.53	–	1627	1569.9	1515.1	1463.9
80000 kPa	907.69	901.73	895.4	889.28	882.56	–	1658.8	1603.2	1550.3	–
90000 kPa	912.24	906.27	900	894.05	887.46	–	1689.9	1635.3	1583.7	–
100000 kPa	916.37	910.56	904.4	898.41	892.18	–	1720.7	1666.2	1615.7	–
110000 kPa	–	–	–	–	–	–	1753.7	1696.2	1645.8	–
120000 kPa	–	–	–	–	–	–	1781.4	1724.8	1676.7	–
130000 kPa	–	–	–	–	–	–	1808.5	1752.9	1705.7	–
140000 kPa	–	–	–	–	–	–	1834.6	1779.2	1733.7	–
150000 kPa	–	–	–	–	–	–	1860.3	1805.4	1760.3	–
170000 kPa	–	–	–	–	–	–	1908.7	1854.6	1811.6	–
190000 kPa	–	–	–	–	–	–	1951.8	1902.4	1861.2	–
210000 kPa	–	–	–	–	–	–	1998	1947.7	1909.8	–
